Here are results for two compounds from patent US7259170B2, “Macrolides containing pharmaceutical compositions” (Novartis AG, priority 2001, dated 2007).

Structures can show the parent of a compound that is named as a salt. Marks after values point to notes of the source that are not given here.

This experiment has as its system Experimental autoimmune uveitits (EAU). Kind of experiment: Experimental autoimmune uveitits (EAU) test in rats. The following applies: for EAU 1st: Day of first signs of EAU (mean±SD) / EAU 10: Incidence of EAU on day 10 (affected animals/animals per group) / EAU POS: Number of EAU positive rats (affected animals/animals per group until end of the study) / SCORE MAX DAY: day of maximum score / SCORE MAX SCORE: Maximum score (mean of both eye lesions±SD): oral once daily; for course and intensity of the disease compared with placebo controls: oral, 0.1 mg/kg compound of formula IIa or 15 mg/kg/day compound of formula I alone, combination at the same dosage levels. The class given is in vivo, LEWIS rats.

[1] abbreviates: Example 1, 5 rats per group, 14 days, Dosis mg/kg/day: Cpd IIa 0.1, Cpd I 15, combination 1.5 [sic] + 15.
[2] abbreviates: Example 1, 14 days, Dosis mg/kg/day: Cpd IIa 0.1, Cpd I 15, combination 1.5 [sic] + 15.
Setting [3] is: Example 1, scores 0 to 4 for 1 eye, 14 days, Dosis mg/kg/day: Cpd IIa 0.1, Cpd I 15, combination 1.5 [sic] + 15.
[4] abbreviates: Example 2, 6 rats per group, 14 days (14×), mg/kg/day: Cpd IIa 0.1, Cpd I 15, combination 15 + 0.1.

`CC[C@@H]1/C=C(\C)C[C@H](C)C[C@H](OC)[C@H]2O[C@@](O)(C(=O)C(=O)N3CCCC[C@H]3C(=O)O[C@H](/C(C)=C/[C@@H]3CC[C@H](Cl)[C@H](OC)C3)[C@H](C)[C@@H](O)CC1=O)[C@H](C)C[C@@H]2OC` [Cpd I, 33-epi-33-chloro-FR 520]: under setting [1], the “EAU 1st: Day of first signs of EAU (mean±SD)” value (“EAU 1st: Day … (mean±SD)” for short) was 11.8 (1.3) day, the “EAU 10: Incidence of EAU on day 10 (affected animals/animals per group)” value is listed as 1/5 and the “EAU POS: Number of EAU positive rats (affected animals/animals per group until end of the study)” value is reported as 5/5. In addition, under setting [2], the “SCORE MAX DAY: day of maximum score” value stood at 14 days. Also, for the setting “Example 1”, the “course and intensity of the disease compared with placebo controls” value was “not distinctively different from placebo controls”. Besides, the “SCORE MAX SCORE: Maximum score (mean of both eye lesions±SD)” value under setting [3] was 6.8 (1.3). Under setting [4], the “EAU 1st: Day … (mean±SD)” value is recorded as 11.5 (0.8) day, the “EAU 10: Incidence of EAU on day 10 (affected animals/animals per group)” value was 2/6, the “EAU POS: Number of EAU positive rats (affected animals/animals per group until end of the study)” value was 6/6 and the “SCORE MAX DAY: day of maximum score” value turned out to be 14 days. Besides, under setting [4], the “SCORE MAX SCORE: Maximum score (mean of both eye lesions±SD)” value is given as 6.0 (2.5).

On to `CCCCCCCCc1ccc(CCC(N)(CO)CO)cc1` [Cpd IIa, 2-amino-2[2-(4-octylphenyl)ethyl]propane-1,3-diol hydrochloride], for which, under setting [1], the “EAU 1st: Day … (mean±SD)” value was 10.5 (0.6) day, the “EAU 10: Incidence of EAU on day 10 (affected animals/animals per group)” value is recorded as 2/5 and the “EAU POS: Number of EAU positive rats (affected animals/animals per group until end of the study)” value is listed as 4/4*^). Further, under setting [2], the “SCORE MAX DAY: day of maximum score” value came out at 13 days. The “course and intensity of the disease compared with placebo controls” value (Example 1) is “not distinctively different from placebo controls”. The “SCORE MAX SCORE: Maximum score (mean of both eye lesions±SD)” value under setting [3] is 8.0 (0.0). For the same compound, under setting [4], the “EAU 1st: Day … (mean±SD)” value is 11.2 (1.0) day, the “EAU 10: Incidence of EAU on day 10 (affected animals/animals per group)” value was 0/6, the “EAU POS: Number of EAU positive rats (affected animals/animals per group until end of the study)” value was 6/6 and the “SCORE MAX DAY: day of maximum score” value was determined as 14 days. Besides, the “SCORE MAX SCORE: Maximum score (mean of both eye lesions±SD)” value under setting [4] is 8.0 (0.0).
